Test results reported in ChEMBL document CHEMBL5346964, “Discovery of LNP1892: A Precision Calcimimetic for the Treatment of Secondary Hyperparathyroidism” (J Med Chem, 2023).

How the values were obtained:
[1] = Stability in mouse plasma measured up to 4 hrs by LC-MS/MS method; assay type: ADME, cell-free; conditions: read-out: Stability
[2] = system: Rattus norvegicus; assay: Subchronic effect on parathyroid hormone in overnight fasted adenine diet-induced chronic kidney disease Wistar rat model plasma assessed as reduction in plasma PTH level at 0.3 mg/kg, po qd measured after 27 days of post treatment by sandwich ELISA analysis; assay type: functional; design: scale not given: the % may be the effect or the level left; conditions: time 27 day
[3] = Protein binding in rat plasma incubated for 16 hrs under shaking condition by rapid equilibrium dialysis based LC-MS/MS method; assay type: ADME, cell-free; conditions: read-out: PPB
[4] = molecular target: hERG (Homo sapiens, UniProt Q12809); assay: Inhibition of hERG at 10 uM relative to control; assay type: toxicity
Sequence of hERG (Q12809 whole entry): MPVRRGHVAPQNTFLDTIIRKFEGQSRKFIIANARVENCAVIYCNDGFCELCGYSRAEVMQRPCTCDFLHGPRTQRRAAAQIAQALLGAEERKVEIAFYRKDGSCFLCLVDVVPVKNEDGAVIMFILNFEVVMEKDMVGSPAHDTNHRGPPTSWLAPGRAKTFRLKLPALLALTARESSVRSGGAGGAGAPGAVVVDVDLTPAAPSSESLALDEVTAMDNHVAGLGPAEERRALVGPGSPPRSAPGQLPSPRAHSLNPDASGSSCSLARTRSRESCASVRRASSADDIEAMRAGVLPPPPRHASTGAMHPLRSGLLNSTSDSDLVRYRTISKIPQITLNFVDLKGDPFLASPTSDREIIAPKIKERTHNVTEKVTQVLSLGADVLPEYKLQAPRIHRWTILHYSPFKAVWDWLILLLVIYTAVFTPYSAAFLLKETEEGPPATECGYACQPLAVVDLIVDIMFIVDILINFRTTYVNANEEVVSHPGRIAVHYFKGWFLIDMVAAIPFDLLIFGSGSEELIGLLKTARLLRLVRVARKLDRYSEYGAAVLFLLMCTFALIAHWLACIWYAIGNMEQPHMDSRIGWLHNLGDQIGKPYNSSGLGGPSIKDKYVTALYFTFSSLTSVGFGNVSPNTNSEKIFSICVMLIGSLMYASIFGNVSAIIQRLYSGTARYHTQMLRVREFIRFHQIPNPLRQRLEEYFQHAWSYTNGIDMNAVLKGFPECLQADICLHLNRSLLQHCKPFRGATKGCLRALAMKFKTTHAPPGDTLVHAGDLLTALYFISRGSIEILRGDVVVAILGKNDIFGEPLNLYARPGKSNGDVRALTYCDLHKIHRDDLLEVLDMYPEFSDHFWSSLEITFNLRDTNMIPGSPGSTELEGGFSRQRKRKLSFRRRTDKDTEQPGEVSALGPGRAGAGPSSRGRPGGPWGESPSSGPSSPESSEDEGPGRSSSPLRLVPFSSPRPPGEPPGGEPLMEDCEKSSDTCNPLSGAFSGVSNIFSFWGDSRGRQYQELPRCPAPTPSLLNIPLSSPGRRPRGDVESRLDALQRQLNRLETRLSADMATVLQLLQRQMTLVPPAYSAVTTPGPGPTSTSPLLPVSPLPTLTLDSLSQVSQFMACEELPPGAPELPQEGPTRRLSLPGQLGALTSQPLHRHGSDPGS

[5] = Cmax in human at 10 mg/kg, po administered as single dose; assay type: ADME, organism-based; design: dose 10 mg/kg, route po; conditions: in vivo
[6] = Cmax in mouse at 50 mg/kg per day, po via gavage administered for 13 weeks; assay type: ADME, organism-based; design: time 13 weeks, dose 50 mg/kg, route po; conditions: in vivo
[7] = Half life in cynomolgus monkey at 1 mg/kg, iv measured upto 24 hrs by LC/MS-MS analysis; assay type: ADME, organism-based, Macaca fascicularis; conditions: in vivo
[8] = AUC(0 to 24 hrs) in Sprague-Dawley rat at 100 mg/kg; assay type: ADME, organism-based; design: dose 100 mg/kg; conditions: in vivo
[9] = Metabolic stability in dog liver S9 fraction measured upto 60 mins by LC-MS/MS method; assay type: ADME, subcellular, Canis lupus familiaris; conditions: read-out: Stability
[10] = Metabolic stability in rat liver cytosol measured upto 60 mins by LC-MS/MS method; assay type: ADME, subcellular; conditions: read-out: Stability
[11] = system: Rattus norvegicus; assay: Chronic effect on parathyroid hormone in overnight fasted adenine diet-induced chronic kidney disease Wistar rat model plasma assessed as reduction in plasma PTH level at 3 mg/kg, po qd measured after 27 days of post treatment by sandwich ELISA analysis; assay type: functional; design: scale not given: the % may be the effect or the level left; conditions: time 27 day
[12] = molecular target: T1, Extracellular calcium-sensing receptor (Homo sapiens, UniProt P41180); assay: Agonist activity at human CaSR expresssed in HEK293 cells in presence of glucose by Fluo4NW dye based FLIPR assay; assay type: functional, cell-based; conditions: read-out: EC50
T1 sequence (P41180 whole entry): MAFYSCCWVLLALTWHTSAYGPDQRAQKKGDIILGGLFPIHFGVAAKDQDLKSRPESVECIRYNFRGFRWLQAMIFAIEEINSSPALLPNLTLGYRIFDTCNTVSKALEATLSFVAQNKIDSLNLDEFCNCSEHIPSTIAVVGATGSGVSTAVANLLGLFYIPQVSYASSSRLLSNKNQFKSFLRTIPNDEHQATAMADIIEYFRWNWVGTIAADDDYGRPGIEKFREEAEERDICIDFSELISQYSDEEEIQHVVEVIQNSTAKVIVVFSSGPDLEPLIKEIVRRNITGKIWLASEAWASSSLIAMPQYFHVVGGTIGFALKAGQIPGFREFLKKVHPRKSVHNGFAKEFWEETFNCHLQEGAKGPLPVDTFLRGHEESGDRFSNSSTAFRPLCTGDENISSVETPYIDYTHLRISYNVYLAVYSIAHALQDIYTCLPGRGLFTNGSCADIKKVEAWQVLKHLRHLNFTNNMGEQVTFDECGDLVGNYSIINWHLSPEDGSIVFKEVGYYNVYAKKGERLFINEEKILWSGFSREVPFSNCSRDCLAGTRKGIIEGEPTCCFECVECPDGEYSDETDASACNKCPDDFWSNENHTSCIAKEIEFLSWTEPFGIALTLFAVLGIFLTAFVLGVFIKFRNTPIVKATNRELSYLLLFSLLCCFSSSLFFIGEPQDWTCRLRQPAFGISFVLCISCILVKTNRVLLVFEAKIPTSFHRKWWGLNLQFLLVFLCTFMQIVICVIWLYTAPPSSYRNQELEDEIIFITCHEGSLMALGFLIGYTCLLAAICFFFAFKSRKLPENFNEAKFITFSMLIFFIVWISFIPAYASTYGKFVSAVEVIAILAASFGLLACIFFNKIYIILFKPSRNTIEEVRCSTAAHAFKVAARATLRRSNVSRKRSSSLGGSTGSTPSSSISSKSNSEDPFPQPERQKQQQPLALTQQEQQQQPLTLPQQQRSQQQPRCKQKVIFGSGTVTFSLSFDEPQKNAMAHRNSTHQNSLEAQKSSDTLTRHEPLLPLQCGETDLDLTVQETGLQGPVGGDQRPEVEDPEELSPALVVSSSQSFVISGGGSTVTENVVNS

[13] = Cmax in human at 25 mg/kg, po administered as multiple dose on day 8; assay type: ADME, organism-based; design: dose 25 mg/kg, route po; conditions: in vivo
[14] = Drug excretion in rat assessed as drug recovery in urine at 10 mg/kg, po; assay type: ADME, organism-based; conditions: read-out: Drug recovery
[15] = Metabolic stability in mouse liver S9 fraction measured upto 60 mins by LC-MS/MS method; assay type: ADME, subcellular; conditions: read-out: Stability
[16] = Protein binding in dog plasma incubated for 16 hrs under shaking condition by rapid equilibrium dialysis based LC-MS/MS method; assay type: ADME, cell-free, Canis lupus familiaris; conditions: read-out: PPB
[17] = Half life in Sprague-Dawley rat at 1 mg/kg, iv measured upto 24 hrs by LC/MS-MS analysis; assay type: ADME, organism-based; conditions: in vivo
[18] = system: Rattus norvegicus; assay: Effect on parathyroid hormone in po dosed overnight fasted Sprague-Dawley rat assessed as reduction in plasma PTH level measured after 0.5 to 6 hrs of post treatment by sandwich ELISA analysis; assay type: functional, organism-based; conditions: dose 3-30 mg/kg, time 0.5-6 hrs
[19] = Drug excretion in BALB/c mouse assessed as drug recovery in feces at 1 mg/kg, iv; assay type: ADME, organism-based; conditions: faeces, read-out: Drug recovery
[20] = Kinetic solubility of compound upto 500 uM in 0.1N NaOH measured after 16 hrs under shaking condition by UV-visible method; assay type: physicochemical; conditions: read-out: Kinetic_solubility
[21] = Oral bioavailability in Sprague-Dawley rat at 10 mg/kg administered as solution measured upto 24 hrs by LC-MS/MS analysis; assay type: ADME, organism-based; conditions: in vivo
[22] = Plasma clearance in Sprague-Dawley rat at 1 mg/kg, iv measured upto 24 hrs by LC/MS-MS analysis; assay type: ADME, organism-based
[23] = Cmax in Sprague-Dawley rat at 10 mg/kg, po measured upto 24 hrs by LC/MS-MS analysis; assay type: ADME, organism-based; design: dose 10 mg/kg, time < 24 hrs, route po; conditions: in vivo
[24] = Chemical stability of the compound in FaSSIF measured after 0.5 to 4 hrs; assay type: physicochemical; conditions: simulated gi fluid; time 0.5-4 hrs
[25] = Chemical stability of the compound in SGF measured after 0.5 to 4 hrs; assay type: physicochemical; conditions: simulated gi fluid; time 0.5-4 hrs
[26] = Cmax in Sprague-Dawley rat at 100 mg/kg; assay type: ADME, organism-based; design: dose 100 mg/kg; conditions: in vivo
[27] = Apparent permeability across apical to basolateral side in human Caco-2 cells at 5 uM measured after 30 to 120 mins by LC-MS/MS analysis; assay type: ADME, cell-based; conditions: time 30-120 min
[28] = Microsomal stability in human liver microsomes assessed as parent compound remaining at 1 uM measured upto 30 mins in presence of NADPH by LC-MS/MS analysis; assay type: ADME, Microsome; conditions: liver microsomes, read-out: Stability
[29] = Oral bioavailability in Sprague-Dawley rat at 10 mg/kg administered as suspension measured upto 24 hrs by LC-MS/MS analysis; assay type: ADME, organism-based; conditions: in vivo
[30] = Stability in rat plasma measured up to 4 hrs by LC-MS/MS method; assay type: ADME, cell-free; conditions: read-out: Stability
[31] = AUC in Beagle dog at 5 mg/kg, po measured upto 24 hrs by LC/MS-MS analysis; assay type: ADME, organism-based, Canis lupus familiaris; design: dose 5 mg/kg, time < 24 hrs, route po; conditions: in vivo

Question: Which results are given for `Cc1ccc([C@@H]2C[C@H](CN[C@H](C)c3cccc4ccccc34)Oc3ccccc32)cc1C(=O)O.Cl`?
Answer: remaining at 4 h [1]: > 80%; Activity [2]: 73%; fraction unbound at 16 h [3]: < 0.01; inhibition at 10 µM [4]: 4%; Cmax [5]: 0.202 µg/mL; Cmax [6]: 34.8 µg/mL; half-life [7]: 5 h; AUC(0-t) [8]: 426 µM·h; remaining at 1 h [9]: > 80%; remaining at 1 h [10]: > 80%; Activity [11]: 83%; EC50 [12]: 6.4 nM; Cmax [13]: 0.463 µg/mL; dose excreted [14]: < 1%; remaining at 1 h [15]: > 80%; fraction unbound at 16 h [16]: < 0.01; half-life [17]: 4 h; Activity [18]: Dose-Dependent Effect; dose excreted [19]: 27%; solubility kinetic at 16 h, 500 µM [20]: > 300 µM; bioavailability [21]: 99%; clearance [22]: 0.24 L/h/kg; Cmax [23]: 14 µM; Stability [24]: Stable; Stability [25]: Stable; Cmax [26]: 53 µM; Papp A→B at 5 µM [27]: 200 nm/s; remaining at 0.5 h, 1 µM [28]: 73%; bioavailability [29]: 33%; remaining at 4 h [30]: > 80%; AUC at 24 h [31]: 63 µM·h
